{"source": "patent US12303505B2", "about": "“Tumor-treating pharmaceutical composition” (Eisai R&D Management Co., Ltd., priority 2017, dated 2025)", "type_in_all_cases": "in vivo", "key": {"[1]": {"test_system": "Human breast cancer MDA-MB-231 cells", "test": "Antitumor effect in human breast cancer MDA-MB-231 transplantation model, nude mice", "protocol": "Human breast cancer MDA-MB-231 cells (ATCC) were cultured by using RPMI1640 medium (Sigma-Aldrich Co. LLC) containing 10% FBS in a 5% CO2 incubator under conditions of 37° C. When the cells became an approximately 80% confluent state, the cells were recovered by using trypsin-EDTA. A suspension was prepared by adding Hank's balanced salt solution containing 50% Matrigel to the cells so as to be 10.0×10^7 cells/mL. 0.1 mL of the obtained cell suspension was subcutaneously transplanted to the sides of the bodies of five nude mice (CAnN.Cg-Foxn1^nu/CrlCrlj, Charles River Laboratories Japan, Inc.) each of a control group, an E7386 25 mg/kg alone administration group, a lenvatinib mesylate 10 mg/kg alone administration group, and a combined administration group of 25 mg/kg E7386 and 10 mg/kg lenvatinib mesylate. From 6 days after the transplantation, E7386 (25 mg/kg, b.d.s., 10 days, oral administration) and lenvatinib mesylate (10 mg/kg, q.d., 10 days, oral administration) were administered alone or in combination to the alone administration group or the combined administration group. For the administration, E7386 was dissolved in 0.1 mol/L hydrochloric acid, and lenvatinib mesylate was dissolved in 3 mmol/L hydrochloric acid. Any drug was not administered to the control group.\nWhen the start day of administration was defined as day 1, the major axis and minor axis of tumor developed in each mouse were then measured at day 4, day 7, and day 10 by using Digimatic Caliper (Mitutoyo Corp.).\n(§1) The tumor volume and the relative tumor volume (RTV) were calculated according to the following expressions. Tumor volume (mm^3)=Tumor major axis (mm)×Tumor minor axis^2 (mm^2)/2 Relative tumor volume (RTV)=Tumor volume at the measurement day/Tumor volume at the start day of administration"}, "[2]": {"test_system": "Human hepatocellular carcinoma line SNU398 cells", "test": "Antitumor effect in human hepatocellular carcinoma line SNU398 transplantation model, nude mice", "protocol": "Human hepatocellular carcinoma line SNU398 cells (ATCC) were cultured by using RPMI1640 medium (Wako Pure Chemical Industries, Ltd.) containing 10% FBS in a 5% CO2 incubator under conditions of 37° C. When the cells became an approximately 80% confluent state, the cells were recovered by using trypsin-EDTA. A suspension was prepared by adding Hank's balanced salt solution containing 50% Matrigel to the cells so as to be 5.0×10^7 cells/mL. 0.1 mL of the obtained cell suspension was subcutaneously transplanted to the sides of the bodies of eight nude mice (CAnN.Cg-Foxn1^nu/CrlCrlj, Charles River Laboratories Japan, Inc.) each of a control group, an E7386 50 mg/kg alone administration group, a lenvatinib mesylate 10 mg/kg alone administration group, and a combined administration group of 12.5, 25 or 50 mg/kg E7386 and 10 mg/kg lenvatinib mesylate. From 9 days after the transplantation, E7386 (12.5, 25, or 50 mg/kg, b.d.s., 14 days, oral administration) and lenvatinib mesylate (10 mg/kg, q.d., 14 days, oral administration) were administered alone or in combination to the alone administration group or the combined administration group. For the administration, E7386 was dissolved in 0.1 mol/L hydrochloric acid, and lenvatinib mesylate was dissolved in 3 mmol/L hydrochloric acid. Any drug was not administered to the control group.\nWhen the start day of administration was defined as day 1, the major axis and minor axis of tumor developed in each mouse were then measured at day 6, day 9, day 12, and day 15 by using Digimatic Caliper (Mitutoyo Corp.).\nas §1"}, "[3]": {"test_system": "transgenic mouse (MMTV-Wnt-1) spontaneous breast cancer", "test": "Antitumor effect in serial transplantation model of transgenic mouse (MMTV-Wnt-1) spontaneous breast cancer, C57BL/6J mice", "protocol": "Spontaneous breast cancer of a transgenic mouse (MMTV-Wnt-1, The Jackson Laboratory) caused to locally express Wnt-1 in mammary gland epithelial cells was collected, transplanted in a mouse of background strain (C57BL/6J, Charles River Laboratories Japan, Inc.) by using a trocar, and passaged. The tumor thus transplanted and passaged was excised when becoming approximately 1.5 g, and prepared into approximately 30 mg of a fragment, which was subcutaneously transplanted to the sides of the bodies of five mice (C57BL/6J) each of a control group, an E7386 12.5, 25 or 50 mg/kg alone administration group, a lenvatinib mesylate 10 mg/kg alone administration group, and a combined administration group of 12.5, 25 or 50 mg/kg E7386 and 10 mg/kg lenvatinib mesylate. After confirmation of engraftment of the tumor, E7386 (12.5, 25 or 50 mg/kg, b.d.s., 14 days, oral administration) and lenvatinib mesylate (10 mg/kg, q.d., 14 days, oral administration) were administered alone or in combination to the alone administration group or the combined administration group. For the administration, E7386 was dissolved in 0.1 mol/L hydrochloric acid, and lenvatinib mesylate was dissolved in 3 mmol/L hydrochloric acid. 0.1 mol/L hydrochloric acid (b.d.s., 14 days) was administered to the control group.\nWhen the start day of administration was defined as day 1, the major axis and minor axis of tumor developed in each mouse were then measured at day 4, day 8, day 11, and day 15 by using Digimatic Caliper (Mitutoyo Corp.).\nThe tumor volume and the relative tumor volume (RTV) were calculated according to the following expressions. Tumor volume (mm^3)=Tumor major axis (mm)×Tumor minor axis^2 (mm)/2 Relative tumor volume (RTV)=Tumor volume at the measurement day/Tumor volume at the start day of administration"}, "[4]": {"conditions": "Day 4, E7386 25 mg/kg b.d.s. oral alone"}, "[5]": {"conditions": "Day 15, E7386 50 mg/kg b.d.s. oral alone"}, "[6]": {"conditions": "Day 4, lenvatinib mesylate 10 mg/kg q.d. oral alone"}, "[7]": {"conditions": "Day 15, lenvatinib mesylate 10 mg/kg q.d. oral alone"}}, "note": "Where a name gives a salt, the structure may show the parent alone."}
{"compound": "C=CCN1CC(=O)N2[C@@H](Cc3ccc(O)cc3F)C(=O)N(Cc3cccc(N4CC(N5CCN(CC)CC5)C4)n3)C[C@@H]2N1C(=O)NCc1ccccc1", "note": "[E7386, (6S,9aS)—N-Benzyl-8-({6-[3-(4-ethylpiperazin-1-yl)azetidin-1-yl]pyridin-2-yl}methyl)-6-(2-fluoro-4-hydroxybenzyl)-4,7-dioxo-2-(prop-2-en-1-yl)hexahydro-2H-pyrazino[2,1-c][1,2,4]triazine-1(6H)-carboxamide]", "values": [{"measurement": "Relative tumor volume (RTV), mean±SD", "setting": "[1]; [4]", "value": "2.34 ± 0.11"}, {"measurement": "Relative tumor volume (RTV), mean±SD", "setting": "[1]; Day 7, E7386 25 mg/kg b.d.s. oral alone", "value": "3.19 ± 0.38"}, {"measurement": "Relative tumor volume (RTV), mean±SD", "setting": "[1]; Day 10, E7386 25 mg/kg b.d.s. oral alone", "value": "4.49 ± 0.51"}, {"measurement": "Relative tumor volume (RTV), mean±SD", "setting": "[2]; Day 6, E7386 50 mg/kg b.d.s. oral alone", "value": "3.74 ± 0.75"}, {"measurement": "Relative tumor volume (RTV), mean±SD", "setting": "[2]; Day 9, E7386 50 mg/kg b.d.s. oral alone", "value": "6.31 ± 1.74"}, {"measurement": "Relative tumor volume (RTV), mean±SD", "setting": "[2]; Day 12, E7386 50 mg/kg b.d.s. oral alone", "value": "7.33 ± 0.89"}, {"measurement": "Relative tumor volume (RTV), mean±SD", "setting": "[2]; [5]", "value": "10.1 ± 1.03"}, {"measurement": "Relative tumor volume (RTV), mean±SD", "setting": "[3]; Day 4, E7386 12.5 mg/kg b.d.s. oral alone", "value": "1.34 ± 0.25"}, {"measurement": "Relative tumor volume (RTV), mean±SD", "setting": "[3]; [4]", "value": "1.26 ± 0.28"}, {"measurement": "Relative tumor volume (RTV), mean±SD", "setting": "[3]; Day 4, E7386 50 mg/kg b.d.s. oral alone", "value": "0.93 ± 0.23"}, {"measurement": "Relative tumor volume (RTV), mean±SD", "setting": "[3]; Day 8, E7386 12.5 mg/kg b.d.s. oral alone", "value": "1.20 ± 0.40"}, {"measurement": "Relative tumor volume (RTV), mean±SD", "setting": "[3]; Day 8, E7386 25 mg/kg b.d.s. oral alone", "value": "1.56 ± 0.48"}, {"measurement": "Relative tumor volume (RTV), mean±SD", "setting": "[3]; Day 8, E7386 50 mg/kg b.d.s. oral alone", "value": "1.05 ± 0.26"}, {"measurement": "Relative tumor volume (RTV), mean±SD", "setting": "[3]; Day 11, E7386 12.5 mg/kg b.d.s. oral alone", "value": "1.70 ± 0.67"}, {"measurement": "Relative tumor volume (RTV), mean±SD", "setting": "[3]; Day 11, E7386 25 mg/kg b.d.s. oral alone", "value": "2.40 ± 0.22"}, {"measurement": "Relative tumor volume (RTV), mean±SD", "setting": "[3]; Day 11, E7386 50 mg/kg b.d.s. oral alone", "value": "1.34 ± 0.35"}, {"measurement": "Relative tumor volume (RTV), mean±SD", "setting": "[3]; Day 15, E7386 12.5 mg/kg b.d.s. oral alone", "value": "2.12 ± 0.65"}, {"measurement": "Relative tumor volume (RTV), mean±SD", "setting": "[3]; Day 15, E7386 25 mg/kg b.d.s. oral alone", "value": "3.69 ± 0.92"}, {"measurement": "Relative tumor volume (RTV), mean±SD", "setting": "[3]; [5]", "value": "1.59 ± 1.03"}]}
{"compound": "COc1cc2nccc(Oc3ccc(NC(=O)NC4CC4)c(Cl)c3)c2cc1C(N)=O", "note": "[Lenvatinib mesylate, 4-(3-chloro-4-(cyclopropylaminocarbonyl)aminophenoxy)-7-methoxy-6-quinolinecarboxamide, reference compound]", "values": [{"measurement": "Relative tumor volume (RTV), mean±SD", "setting": "[1]; [6]", "value": "2.01 ± 0.60"}, {"measurement": "Relative tumor volume (RTV), mean±SD", "setting": "[1]; Day 7, lenvatinib mesylate 10 mg/kg q.d. oral alone", "value": "2.41 ± 0.60"}, {"measurement": "Relative tumor volume (RTV), mean±SD", "setting": "[1]; Day 10, lenvatinib mesylate 10 mg/kg q.d. oral alone", "value": "2.67 ± 1.23"}, {"measurement": "Relative tumor volume (RTV), mean±SD", "setting": "[2]; Day 6, lenvatinib mesylate 10 mg/kg q.d. oral alone", "value": "3.98 ± 1.00"}, {"measurement": "Relative tumor volume (RTV), mean±SD", "setting": "[2]; Day 9, lenvatinib mesylate 10 mg/kg q.d. oral alone", "value": "6.48 ± 1.74"}, {"measurement": "Relative tumor volume (RTV), mean±SD", "setting": "[2]; Day 12, lenvatinib mesylate 10 mg/kg q.d. oral alone", "value": "8.33 ± 2.08"}, {"measurement": "Relative tumor volume (RTV), mean±SD", "setting": "[2]; [7]", "value": "9.71 ± 2.30"}, {"measurement": "Relative tumor volume (RTV), mean±SD", "setting": "[3]; [6]", "value": "1.03 ± 0.13"}, {"measurement": "Relative tumor volume (RTV), mean±SD", "setting": "[3]; Day 8, lenvatinib mesylate 10 mg/kg q.d. oral alone", "value": "0.87 ± 0.13"}, {"measurement": "Relative tumor volume (RTV), mean±SD", "setting": "[3]; Day 11, lenvatinib mesylate 10 mg/kg q.d. oral alone", "value": "0.98 ± 0.21"}, {"measurement": "Relative tumor volume (RTV), mean±SD", "setting": "[3]; [7]", "value": "1.05 ± 0.25"}]}
